From ChEMBL document CHEMBL1121805, “Nucleosides containing chemically reactive groups” (1981)

Columns and labels:
[1] = test system: L1210; assay: Percent inhibition of incorporation of [5-3H]-Uridine into DNA of L1210 cells; format: functional, Mus musculus
[2] = test system: L1210; assay: Percent inhibition of incorporation of [8-14C]-Adenine into DNA of L1210 cells; format: functional, Mus musculus
[3] = test system: L1210; assay: Percent inhibition of incorporation of [Me-3H]-Thymidine into DNA of L1210 cells; format: functional, Mus musculus
[4] = test system: L1210; assay: Cytotoxicity was evaluated against the L1210 cell lines in vitro; format: functional; details: Mus musculus, read-out: ED50 (the source's name)

Structure (SMILES)	Inhibition [1] [%]	Inhibition [2] [%]	Inhibition [3] [%]	EC50 [4] [µg/mL]
Cc1cn(C2CC(O)C(CCNC(=O)CBr)O2)c(=O)[nH]c1=O (centres undefined)	60	67	52	
O=C(CBr)NC[C@H]1OC(n2cnc3c(O)ncnc32)[C@H](O)[C@@H]1O (some centres undefined)				< 5
